Values quoted from earlier work as cited in patent US20070117788A1, “Combination of a dopamine D2-receptor agonist and tiotropium or a derivative therof for treating obstructive airways and other inflammatory diseases” (Boehringer Ingelheim Pharma GmbH & Co. KG, priority 2001, published 2007).

How the values were obtained:
δ and ε protein kinase C = conditions: with ethanol, neural cells in culture

Br.CCCN1CCc2cc(O)cc3c2[C@H]1Cc1ccc(O)c(O)c1-3 [R(−)-2,10,11-trihydroxy-N-propyl-noraporphine hydrobromide]
translocation of δ and ε protein kinase C (δ and ε protein kinase C): acts synergistically with ethanol to cause translocation

CCCn1c(=O)c2c(C)nc(CC)n2c2nc(OC)ccc21 [Example D-22888]
anti-allergic effect (antigen-challenged pig): strong anti-allergic affect
rhinorrhea (antigen-challenged pig): inhibit rhinorrhea
